Reference: patent publication US10697024B2, “Methods of determining IMiDS resistance in plasma cell disorders” (The Charlotte Mecklenburg Hospital Authority, priority 2016, dated 2020)

Test system: CD138-purified plasma cells
Experiment: GEP-based pharmacogenomics of paired plasma cells prior to and 48 hours after an IMiD test dose
Type: in vivo, human
Settings: MM patients, bone marrow plasma cells, 48 hr after test dose vs. baseline, SAM analysis; Affymetrix U95Av2 (thalidomide 400 mg/d, lenalidomide 25 to 50 mg/d) or U133Plus2.0 (pomalidomide 4 mg/d)
Protocol: GEP-based pharmacogenomics of paired CD138-purified plasma cells, obtained from patients prior to and 48 hours after administration of test doses of Thal (42 newly diagnosed MM), Len (18 relapsed/refractory MM), or Pom (18 relapsed/refractory MM) were compared using significance analysis of microarrays (SAM).
Plasma cell purifications and GEP, using the Affymetrix U133 Plus 2.0 microarray, were performed as previously described (Ref: Zhan F, Huang Y, Colla S, et al. The molecular classification of multiple myeloma. Blood. 2006; 108:2020-2028.). Samples were hybridized to Affymetrix expression arrays. Affymetrix U133Plus2.0 arrays were used in the pomalidomide study and Affymetrix U95Av2 arrays were used for thalidomide and lenalidomide pharmacogenomics studies. Bone marrow samples from MM patients enrolled in pharmacogenomics study were obtained prior to, and 48 hours after administration of a test dose of thalidomide (n=42 newly diagnosed), lenalidomide (n=18 relapsed/refractory) or pomalidomide (n=18 relapsed refractory). Plasma cell isolation from mononuclear cell fraction was performed by immunomagnetic bead selection with monoclonal anti-human CD138 antibody using the AutoMACS automated separation system (Miltenyi-Biotec) as previously described. Isolated bone marrow plasma cells were processed and analyzed for Gene-expression profiling (GEP) according to previously reported methods. Samples were hybridized to an Affymetrix U133Plus2.0 microarray for pomalidomide study and to an Affymetrix U95Av2 microarray for thalidomide and lenalidomide studies according to the manufacturer's recommendations and then read on GeneChip Scanner 3000 (Affymetrix). The data files were deposited in the ArrayExpress archive under the accession number E-TABM-1138. […]

Compound | Probe sets changed (p < 0.05) after 48 hr of IMiD treatment
Nc1cccc2c1CN(C1CCC(=O)NC1=O)C2=O (stereo not drawn) [Lenalidomide, lenalidomide] | 1304
Nc1cccc2c1C(=O)N(C1CCC(=O)NC1=O)C2=O (stereo not drawn) [Pomalidomide, pomalidomide] | 4944
O=C1CCC(N2C(=O)c3ccccc3C2=O)C(=O)N1 (stereo not drawn) [Thalidomide, thalidomide] | 1398
